Experimental data: patent US5776892A, “Anti-inflammatory peptides” (Curative Health Services, Inc., priority 1994, dated 1998)
No end group written: not given here.

Legend:
[1] = system: carrageenan-induced peritonitis; test: Carrageenan-induced peritonitis, inflammatory cell influx in peritoneal lavage; format: in vivo, mouse; conditions: 60 mg/kg/day minipump
Description: Mice (C57BL/6UAF, females, 12 weeks old) were implanted with Alzet mini pumps set to deliver 60 mg CT-112/kg/day. Six days post-implantation, the mice were challenged with an intraperitoneal injection of 0.3 ml of carrageenan in PBS (10 mg/ml). The peritoneal cavity was lavaged with 15 ml of Hank's Balanced Salt Solution (Ca^2+ - and Mg^2+ -free) at 24, 48 and 72 hr post-challenge. The lavage fluid was centrifuged (500 g, 5 min), fixed with LeukoStat fixative and stained with LeukoStat staining solution. The slides were analyzed under a microscope for the different types of inflammatory cells, such as macrophages, lymphocytes and neutrophils. At the 48-hr time point, 5 control mice were also lavaged.

Salmonella = Salmonella reverse mutation assay; format: cell-based; conditions: 100-5,000 μg/ml, with or without rat liver microsomal enzyme activation
From the text: The mutagenic potential of CT-112 (SEQ. ID NO: 1) has been assessed.

With “TTSQVRPR [CT-112, octapeptide derived from platelet factor 4]” the “Absolute Cell Number, Lymphocytes” value ([1]; 24 hr post carrageenan) was 16.9 ± 5.9, the “Absolute Cell Number, Macrophages” value ([1]; 24 hr post carrageenan) was 19.5 ± 10 and the “Absolute Cell Number, Neutrophils” value ([1]; 24 hr post carrageenan) was 106 ± 29. For the same sequence, the “Absolute Cell Number, Lymphocytes” value ([1]; 48 hr post carrageenan) was 12.5 ± 7.6, the “Absolute Cell Number, Macrophages” value ([1]; 48 hr post carrageenan) was 126 ± 43 and the “Absolute Cell Number, Neutrophils” value ([1]; 48 hr post carrageenan) was 134 ± 77. The “Absolute Cell Number, Lymphocytes” value ([1]; 72 hr post carrageenan) was 45.1 ± 42, the “Absolute Cell Number, Macrophages” value ([1]; 72 hr post carrageenan) was 255 ± 125 and the “Absolute Cell Number, Neutrophils” value ([1]; 72 hr post carrageenan) was 48.4 ± 28. For the same sequence, the “number of revertants (histidine independent growth)” value (Salmonella) was “did not cause an increase in the number of revertants”.
